According to PubChem BioAssay (NCI):
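Exposure lasted 48 hours, with cells grown in 96-well plates and compounds tested at five concentrations. TGI is the concentration that stops growth completely.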

How the values were obtained:
Experiment in all cases: NCI anticancer screen, dose series, 48 h
CAKI-1 renal = test system: CAKI-1 renal
RPMI-8226 leukemia = test system: RPMI-8226 leukemia
SK-MEL-5 melanoma = test system: SK-MEL-5 melanoma
RXF 393 renal = test system: RXF 393 renal
CCRF-CEM leukemia = test system: CCRF-CEM leukemia
A549 NSCLC = test system: A549 NSCLC
HOP-92 NSCLC = test system: HOP-92 NSCLC
SF-295 CNS = test system: SF-295 CNS
UACC-257 melanoma = test system: UACC-257 melanoma
SK-MEL-28 melanoma = test system: SK-MEL-28 melanoma
NCI-H522 lung = test system: NCI-H522 lung
HCT-15 colon = test system: HCT-15 colon
MOLT-4 leukemia = test system: MOLT-4 leukemia
NCI-H226 lung = test system: NCI-H226 lung
OVCAR-3 ovarian = test system: OVCAR-3 ovarian
HT29 colon = test system: HT29 colon
NCI-H23 lung = test system: NCI-H23 lung
SNB-75 CNS = test system: SNB-75 CNS
M14 melanoma = test system: M14 melanoma
HOP-62 NSCLC = test system: HOP-62 NSCLC
DMS 273 small cell lung = test system: DMS 273 small cell lung
ACHN renal = test system: ACHN renal
MALME-3M melanoma = test system: MALME-3M melanoma
U251 CNS = test system: U251 CNS
XF 498 CNS = test system: XF 498 CNS
SN12C renal = test system: SN12C renal
KM20L2 colon = test system: KM20L2 colon
SF-268 CNS = test system: SF-268 CNS
786-0 renal = test system: 786-0 renal
DLD-1 colon = test system: DLD-1 colon
UACC-62 melanoma = test system: UACC-62 melanoma
HL-60(TB) leukemia = test system: HL-60(TB) leukemia
HCT-116 colon = test system: HCT-116 colon
OVCAR-8 ovarian = test system: OVCAR-8 ovarian
LOX IMVI melanoma = test system: LOX IMVI melanoma
NCI-H460 lung = test system: NCI-H460 lung
A498 renal = test system: A498 renal
OVCAR-4 ovarian = test system: OVCAR-4 ovarian
SK-MEL-2 melanoma = test system: SK-MEL-2 melanoma
SNB-19 CNS = test system: SNB-19 CNS
COLO 205 colon = test system: COLO 205 colon
SNB-78 CNS = test system: SNB-78 CNS
SW-620 colon = test system: SW-620 colon
K-562 leukemia = test system: K-562 leukemia
UO-31 renal = test system: UO-31 renal
M19-MEL melanoma = test system: M19-MEL melanoma
KM12 colon = test system: KM12 colon
LXFL 529 NSCLC = test system: LXFL 529 NSCLC
HCC-2998 colon = test system: HCC-2998 colon
OVCAR-5 ovarian = test system: OVCAR-5 ovarian
IGROV1 ovarian = test system: IGROV1 ovarian
TK-10 renal = test system: TK-10 renal
HOP-18 NSCLC = test system: HOP-18 NSCLC
EKVX NSCLC = test system: EKVX NSCLC
SR leukemia = test system: SR leukemia
SF-539 CNS = test system: SF-539 CNS
DMS 114 small cell lung = test system: DMS 114 small cell lung
SK-OV-3 ovarian = test system: SK-OV-3 ovarian
RXF-631 renal = test system: RXF-631 renal

Measured: TGI

COC(=O)C(=O)C(C(C)=O)C(=O)NCc1ccccc1 (stereo unspecified)
19 µM: SW-620 colon
not listed: SK-OV-3 ovarian | RXF-631 renal
> 100 µM: all other assays above

CN(CCCN1C(=O)c2cccc3cc([N+](=O)[O-])cc(c23)C1=O)CCN(C)CCCN1C(=O)c2cccc3cc([N+](=O)[O-])cc(c23)C1=O
not listed: HOP-92 NSCLC | DLD-1 colon | LOX IMVI melanoma | UO-31 renal | SR leukemia
> 39.3 µM: all other assays above
